According to patent US20250025460A1, “USE OF A COMBINATION OF LEVOSIMENDAN AND AN SGLT-2 INHIBITOR TO TREAT HEART FAILURE” (Tenax Therapeutics, Inc., priority 2021, published 2025):

Assays:
[1] = follow-ups two weeks after treatment with levosimendan; cited from earlier work
[2] = in vivo; cited from earlier work
[3] = system: PH-HFpEF patient; assay: HELP Study: rest and exercise right heart catheterization after 24-hour i.v. levosimendan, Patient 019-002; assay type: in vivo, human; settings: single 24-hour open label lead-in infusion
Procedure: (§1) During the HELP Study, as described in PCT International Application Publication No. WO 2021/126884, the entire contents of which are incorporated by reference, Patient 019-002 was administered empagliflozin shortly after beginning levosimendan therapy.
Specifically, Patient 019-002 had established PH-HFpEF and was initially enrolled into the HELP Trial. The diagnosis of PH-HFpEF was confirmed by rest and exercise right heart catheterization. […] The PCWP of 35 mmHg at rest increased with exercise to 55 mmHg at baseline. […] Thus, levosimendan produced a 40% fall in resting PCWP and a 33% fall in exercise PCWP. In addition, at baseline the CVP was 18 mmHg and increased to 30 mmHg with exercise. Following the 24 hours of i.v. levosimendan the CVP fell to 12 mmHg at rest and to 21 mmHg with exercise. Thus, levosimendan produced a 33% fall in resting CVP, and a 30% fall in CVP with exercise. Accordingly, the response of Patient 019-002 to levosimendan treatment was typical of other patients in the study in terms of improvements to their hemodynamic profile (FIG. 1).

[4] = system: PH-HFpEF patients; assay: HELP Study: 6-minute walk distance; assay type: in vivo, human; settings: PH-HFpEF patients of the HELP Study, on average, levosimendan alone
Procedure: 6 MWT is the abbreviation for six-minute walk test. 6 MWT is a performance-based test used to measure functional exercise capacity. The 6 MWT measures the distance an individual is able to walk over a total of 6 minutes at a constant and normal pace. (Vandoni et al. 2018)
as §1

[5] = cited from earlier work
[6] = system: phosphodiesterase-3 (PDE3); settings: cited from earlier work
[7] = system: PDE4; settings: cited from earlier work
[8] = system: whole cardiomyocytes and isolated contractile apparatus preparations; settings: cited from earlier work
[9] = system: heart failure patients; settings: cited from earlier work

SMILES: C[C@@H]1CC(=O)NN=C1c1ccc(N)cc1 [OR-1855, (R)-6-(4-aminophenyl)-5-methyl-4,5-dihydropyridazin-3(2H)-one]
- concentrations of metabolite at follow-up [1]: detectable
- hemodynamic and pharmacologic properties / activity compared with levosimendan [2]: limited activity

SMILES: C[C@@H]1CC(=O)NN=C1c1ccc(NN=C(C#N)C#N)cc1 [levosimendan]
- change in pulmonary capillary wedge pressure (PCWP), FIG. 1 [3]: decrease
- improvement of 6-minute walk distance [4]: approximately 29 m
- plasma concentration profile of the levosimendan metabolite OR-1896 ([5]; subcutaneous compared with intravenous administration of levosimendan): similar
- plasma concentrations of levosimendan ([5]; subcutaneous compared with intravenous administration): lower plasma concentrations

SMILES: CC(=O)Nc1ccc(C2=NNC(=O)C[C@H]2C)cc1 [OR-1896, (R)-N-(4-(4-methyl-6-oxo-1,4,5,6-tetrahydropyridazin-3-yl)phenyl) acetamide]
- potency in the inhibition of PDE3 compared with levosimendan [6]: profoundly less potent
- potency in the inhibition of PDE4 compared with levosimendan [7]: profoundly less potent
- inotropic effects, potency compared with levosimendan [8]: equipotent
- concentrations of metabolite at follow-up [1]: detectable
- hemodynamic and pharmacologic properties / activity compared with levosimendan [2]: similar

SMILES: OC[C@H]1O[C@@H](c2ccc(Cl)c(Cc3ccc(O[C@H]4CCOC4)cc3)c2)[C@H](O)[C@@H](O)[C@@H]1O [empagliflozin]
- 6-minute walk distance or quality of life ([9]; EMBRACE HF, PH-HFpEF patients, empagliflozin alone): did not demonstrate a meaningful difference
- exercise capacity as measured by change in six-minute walk distance ([9]; EMPERIAL-Preserved and EMPERIAL-Reduced trials, empagliflozin alone): neither of these trials showed an improvement
- exercise capacity as measured by a difference in 6 MWD ([9]; HFpEF, HFrEF or PH-HFpEF patients, empagliflozin alone (EMPERIAL-Preserved, EMPERIAL-Reduced, EMBRACE HF)): did not demonstrate a material change
